According to US9493468B2, “Antifungal 5,6-dihydro-4H-pyrrolo[1,2-a][1,4]benzo-diazepines and 6H-pyrrolo[1,2-a][1,4]benzodiazepines substituted with heterocyclic derivatives” (Janssen Pharmaceutica NV, priority 2011, dated 2016):

Key:
Type in all cases: cell-based
[1] = system: Aspergillus fumigatus; assay: Antifungal activity in vitro, resazurin growth inhibition: Aspergillus fumigatus (B42928)
Method in brief: (§1)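 Compound dilutions, with 64 μM as the highest in-test level, are spotted onto plates, then an inoculum of 10^3 cfu in RPMI-1640 plus 2% glucose (MOPS, pH 7.0±0.1) is added. Plates are incubated at species-dependent time and temperature, up to a week or more at 27° C. for dermatophytes.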

[2] = system: Microsporum canis; assay: Antifungal activity in vitro, resazurin growth inhibition: Microsporum canis (B68128)
Method in brief: (§2)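 Dermatophytes incubated at 27° C. for one week or more with compound, max 64 μM, in RPMI-1640/MOPS pH 7.0±0.1, 10^3 cfu/well. Viability by resazurin-to-resorufin fluorescence, 550/590 nm.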

[3] = system: Trichophyton rubrum; assay: Antifungal activity in vitro, resazurin growth inhibition: Trichophyton rubrum (B68183)
Method in brief: as §2

[4] = system: Candida parapsilosis; assay: Antifungal activity in vitro, resazurin growth inhibition: Candida parapsilosis (B66126)
Method in brief: as §1

[5] = system: Trichophyton mentagrophytes; assay: Antifungal activity in vitro, resazurin growth inhibition: Trichophyton mentagrophytes (B70554)
Method in brief: as §2

[6] = system: Sporothrix schenkii; assay: Antifungal activity in vitro, resazurin growth inhibition: Sporothrix schenkii (B62482)
Method in brief: as §1

[7] = system: Cryptococcus neoformans; assay: Antifungal activity in vitro, resazurin growth inhibition: Cryptococcus neoformans (B66663)
Method in brief: as §1

SMILES	Inf. E: Aspergillus fumigatus B42928, pIC50 [1]	Inf. B: Microsporum canis B68128, pIC50 [2]	Inf. C: Trichophyton rubrum B68183, pIC50 [3]	Inf. D: Candida parapsilosis B66126, pIC50 [4]	Inf. G: Trichophyton mentagrophytes B70554, pIC50 [5]	Inf. A: Sporothrix schenkii B62482, pIC50 [6]	Inf. F: Cryptococcus neoformans B66663, pIC50 [7]
Fc1cc(F)c2c(c1)-n1cccc1C(c1cnc(Cl)c(Cl)c1)=NC2 [Compound 81]	5.58	<4.19	<4.19	4.19	<4.19	5.65	<4.19
Cc1cc(C2=NCc3c(Cl)cccc3-n3cccc32)ccn1 [Compound 96]	4.40	4.80	5.10	<4.19	5.00	<4.19	<4.19
Cn1ccc2cc(C3=NCc4c(Cl)cccc4-n4cccc43)ccc21 [Compound 106]	5.05	5.79	6.18	5.09	5.51	4.90	5.26
Cn1nc2ccc(C3=NCc4c(Cl)cccc4-n4cccc43)cc2n1 [Compound 108]	<4.49	4.98	5.99	<4.49	5.43	<4.49	<4.49
Cn1nc2ccc(C3=NCc4c(Cl)cc(Cl)cc4-n4cccc43)cc2n1 [Compound 109]	<4.19	<4.19	5.70	<4.19	4.37	<4.19	4.34
Cc1ccc2cc(C3=NCc4c(Cl)cccc4-n4cccc43)ccc2n1 [Compound 112]	<4.19	5.18	6.02	<4.19	<4.19	<4.19	5.07
Cc1ccc2cc(C3=NCc4c(F)cccc4-n4cccc43)ccc2n1 [Compound 113]	<4.19	<4.19	5.86	<4.19	<4.19	<4.19	<4.19
Cc1ccc2cc(C3=NCc4c(F)cc(F)cc4-n4cccc43)ccc2n1 [Compound 114]	<4.19	<4.19	5.75	<4.19	<4.19	<4.19	<4.19
Fc1cc(F)c2oc(C3=NCc4c(Cl)cc(Cl)cc4-n4cccc43)cc2c1 [Compound 129]	5.61	<4.19	4.96	<4.19	<4.19	<4.19	<4.19
Cc1cccc2oc(C3=NCc4c(Cl)cccc4-n4cccc43)cc12 [Compound 132]	<4.49	4.59	5.54	<4.49	<4.49	<4.49	<4.49
Cc1cccc2oc(C3=NCc4ccc(Cl)cc4-n4cccc43)cc12 [Compound 133]	<4.19	<4.19	<4.19	<4.19	<4.19	<4.19	5.83
Cc1ccc2oc(C3=NCc4ccc(Cl)cc4-n4cccc43)cc2c1 [Compound 135]	<4.19	4.41	5.91	<4.19	<4.19	<4.19	4.54
Cc1ccc2oc(C3=NCc4c(Cl)cc(Cl)cc4-n4cccc43)cc2c1 [Compound 136]	<4.19	4.41	5.67	<4.19	<4.19	<4.19	<4.19
Cc1ccc2cc(C3=NCc4c(Cl)cc(Cl)cc4-n4cccc43)oc2c1 [Compound 139]	<4.19	4.46	4.40	<4.19	<4.19	<4.19	<4.19

Continued, values first:

Inf. E: Aspergillus fumigatus B42928, pIC50 [1]	Inf. B: Microsporum canis B68128, pIC50 [2]	Inf. C: Trichophyton rubrum B68183, pIC50 [3]	Inf. D: Candida parapsilosis B66126, pIC50 [4]	Inf. G: Trichophyton mentagrophytes B70554, pIC50 [5]	Inf. A: Sporothrix schenkii B62482, pIC50 [6]	Inf. F: Cryptococcus neoformans B66663, pIC50 [7]	SMILES
<4.19	5.42	6.19	<4.19	5.33	<4.19	<4.19	Fc1cccc2c1CN=C(c1ccc(C(F)(F)F)nc1)c1cccn1-2 [Compound 90]
5.02	5.26	6.16	<4.19	5.63	<4.19	<4.19	CC(=O)c1ccc(C2=NCc3c(F)cccc3-n3cccc32)cn1 [Compound 93]
<4.49	<4.49	5.17	<4.49	4.58	<4.49	<4.49	Cc1cc(C2=NCc3ccccc3-n3cccc32)ccn1 [Compound 95]
<4.49	4.87	5.99	<4.49	4.83	<4.49	<4.49	Cc1cc(C2=NCc3c(C)cccc3-n3cccc32)ccn1 [Compound 97]
4.49	<4.19	4.47	5.06	4.48	4.49	5.03	FC(F)(F)c1cc(C2=NCc3ccc(Cl)cc3-n3cccc32)ccn1 [Compound 98]
<4.19	5.10	4.89	<4.19	<4.19	<4.19	<4.19	Cc1ncc(C2=NCc3c(C)cccc3-n3cccc32)cn1 [Compound 99]
<4.19	4.21	<4.19	<4.19	<4.19	<4.19	<4.19	Cc1ncc(C2=NCc3c(Cl)cccc3-n3cccc32)cn1 [Compound 100]
<4.19	4.56	5.23	<4.19	5.57	<4.19	<4.19	FC(F)(F)c1ncc(C2=NCc3ccccc3-n3cccc32)cn1 [Compound 101]
<4.19	<4.19	4.49	<4.19	<4.19	<4.19	<4.19	Cc1cccc2c1CN=C(c1cnc(C(F)(F)F)nc1)c1cccn1-2 [Compound 103]
5.54	<4.19	5.91	<4.19	<4.19	<4.19	<4.19	FC(F)(F)c1ncc(C2=NCc3c(Cl)cc(Cl)cc3-n3cccc32)cn1 [Compound 104]
